These results are taken from US9700563B2, “Kappa opioid receptor compounds” (MediSynergies, LLC, priority 2012, dated 2017).

For one series, the target named is Human MOR (Homo sapiens (Human), UniProt P35372). The experiment in a line: Opioid receptor affinity, Mu (MOR), NIMH PDSP. The following applies: read-out: MOR % inh. at 10 uM. The series is classed as binding. As to the method:
(§1) The compounds were tested for activity vs. opioid receptor subtypes Kappa (KOR), Delta (DOR) and Mu (MOR) at an initial concentration of 10 μM each, through the NIMH Psychoactive Drug Screening Program (PDSP), operated by Dr. Bryan Roth and his colleagues in the Department of Pharmacology at the University of North Carolina (Chapel Hill, N.C.) through an agreement with the National Institute of Mental Health (NIMH). Human KOR, DOR and MOR were expressed in CHO cells for each assay.

For another series, the target named is Human DOR (Homo sapiens (Human), UniProt P41143). The experiment in a line: Opioid receptor affinity, Delta (DOR), NIMH PDSP. The series is classed as binding. As to conditions: read-out: DOR % inh. at 10 uM. The method, then: as §1
Human DOR, sequence (P41143 whole entry): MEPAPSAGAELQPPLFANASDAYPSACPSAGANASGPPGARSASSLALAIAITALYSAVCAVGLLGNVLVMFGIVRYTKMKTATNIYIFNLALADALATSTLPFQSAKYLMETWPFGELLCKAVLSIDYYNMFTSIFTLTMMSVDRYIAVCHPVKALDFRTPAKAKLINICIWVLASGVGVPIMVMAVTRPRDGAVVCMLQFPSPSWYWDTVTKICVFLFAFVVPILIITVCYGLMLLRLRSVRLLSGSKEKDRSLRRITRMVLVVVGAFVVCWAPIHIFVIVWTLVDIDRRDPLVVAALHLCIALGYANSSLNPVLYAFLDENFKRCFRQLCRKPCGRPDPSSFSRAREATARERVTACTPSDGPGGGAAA
The target of another series is Human KOR (Homo sapiens (Human), UniProt P41145). The experiment in a line: Opioid receptor affinity, Kappa (KOR), NIMH PDSP. The series is classed as binding. The following applies: human KOR expressed in CHO cells. As to the method: as §1
Human KOR, sequence (P41145 whole entry): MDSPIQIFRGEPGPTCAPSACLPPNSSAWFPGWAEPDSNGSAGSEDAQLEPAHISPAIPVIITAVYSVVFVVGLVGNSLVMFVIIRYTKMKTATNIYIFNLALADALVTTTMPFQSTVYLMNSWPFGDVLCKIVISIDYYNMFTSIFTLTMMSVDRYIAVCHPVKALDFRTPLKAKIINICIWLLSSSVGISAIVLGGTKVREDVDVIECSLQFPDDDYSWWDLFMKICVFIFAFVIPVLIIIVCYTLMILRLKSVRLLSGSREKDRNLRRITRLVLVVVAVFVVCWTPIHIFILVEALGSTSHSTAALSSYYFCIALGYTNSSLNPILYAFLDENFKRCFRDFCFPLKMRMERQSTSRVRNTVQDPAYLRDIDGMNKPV
The conditions of series [1]: cited from earlier work.

Structures are written as SMILES.

What is called Ki is the equilibrium dissociation constant of an inhibitor or competing ligand from its target.

Human MOR, sequence (P35372 whole entry): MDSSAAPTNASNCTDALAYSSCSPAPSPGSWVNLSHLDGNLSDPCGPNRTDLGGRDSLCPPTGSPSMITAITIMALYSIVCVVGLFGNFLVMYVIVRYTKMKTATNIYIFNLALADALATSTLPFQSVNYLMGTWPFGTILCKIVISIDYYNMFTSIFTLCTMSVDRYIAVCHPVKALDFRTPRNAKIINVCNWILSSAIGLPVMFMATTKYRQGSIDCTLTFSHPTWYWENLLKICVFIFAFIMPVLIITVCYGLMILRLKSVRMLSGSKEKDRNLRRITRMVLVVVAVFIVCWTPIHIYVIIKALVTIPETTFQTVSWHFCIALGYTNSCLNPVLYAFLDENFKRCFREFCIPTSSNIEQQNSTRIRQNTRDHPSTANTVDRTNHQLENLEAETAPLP

With `CN(C)CCCC1(c2ccc(F)cc2)OCc2cc(C(=N)N3CCCC3)ccc21` (stereo not shown) [Example 6, 1-[1-[3-(dimethylamino)propyl]-1-(4-fluorophenyl)-1,3-dihydro-2-benzofuran-5-yl]-1-(pyrrolidin-1-yl)-methanimine], the inhibition at 10 µM worked out at 8% at Human MOR and 6% at Human DOR. The molecule also showed a Ki on Human KOR of 249 nM.

Take `CN(C)CCCC1(c2ccc(F)cc2)OCc2cc(C(=N)NCc3ccccc3)ccc21` (stereo not shown) [Example 4, N-benzyl-1-[3-(dimethylamino)propyl]-1-(4-fluorophenyl)-1,3-dihydro-2-benzofuran-5-carboximidamide]: the inhibition at 10 µM on Human MOR was determined as 39%; on Human DOR it was 10%. This molecule showed a Ki at Human KOR of 30 nM.

Turning to `CC(C)C[C@@H](NC(=O)[C@@H](Cc1ccccc1)NC(=O)[C@H](N)Cc1ccccc1)C(=O)N[C@H](CCCCN)C(=O)N1CCC(N)(C(=O)O)CC1` [CR845], in series [1] (Phase II trials in the U.S.), the “dysphoric behavior or hallucinations” value is “has not displayed dysphoric behavior or hallucinations”. Besides, the “incidence of nausea and vomiting” value in series [1] (post-operative patients) is “reduced incidence of nausea and vomiting”.

`CN(C)CCCC1(c2ccc(F)cc2)OCc2cc(-c3ncc[nH]3)ccc21` (stereo not shown) [Example 7]: the inhibition at 10 µM on Human MOR was found to be 39%; at Human DOR it was 24%.
